Results as given in patent US20240307283A1, “COMPOSITIONS AND METHODS FOR DECREASING PIGMENTATION” (The General Hospital Corporation, priority 2021, published 2024).

How the values were obtained:
[1] = tested on: human skin; assay: Topical treatment of a human subject (skin type 2); type: in vivo; conditions: 100 uM in DMSO, 15 days, twice per day
Experimental: A human subject with skin type 2 was treated with Hexetidine 100 uM in DMSO for 15 days, twice per day, individual.

[2] = tested on: human skin explants; assay: Depigmentation of human skin explants by NNT activators; type: cell-based; conditions: after 36 hours, DMSO-based carrier, FIGS. 13A-B
Experimental: Skin samples considered surgical waste were obtained de-identified from healthy donors (IRB #2013P000093) undergoing reconstructive surgery, according to institutional regulations. Full thickness human abdominal skin explants were cultured in petri dishes with a solid phase and liquid phase phenol red free DMEM medium containing 20% penicillin/streptomycin/glutamine, 5% fungizone (Gibco), and 10% fetal bovine serum. Compounds were applied strictly on top of the explants, making sure no drip occurred into the underlying media. For UV irradiation experiments, a UV lamp (UV Products) was used at 1000 mJ/cm^2 UVB.
The ability of ASS, Usnic acid, 4-hexylresorcinol, candesartan, Nigericin, elaidylphosphocholine, hexitidine, naproxol, and Ginkgolic acid to depigment skin was tested in human skin explants. A DMSO-based carrier solution was used. DMSO was used as a negative control. […]

[3] = tested on: UACC257 cells; assay: siNNT-induced pigmentation with antioxidants, melanin content; type: cell-based, human; conditions: NAC 5 mM, MitoTEMPO 20 μM daily for 72 h; NADPH 0.1 M
Experimental: (§1) sIRNA transfection: A single treatment of 10 nmol/L of siRNA was delivered to a 60% confluent culture by transfection with Lipofectamine RNAiMAX (Life Technologies, #13778150) according to the manufacturer's recommendations. After 48-72 h of transfection, total RNA or protein was harvested. Melanin quantification: Equal numbers of cells were plated in 6-well plates. The cells were then harvested 72-96 hours post siRNA or NNT inhibitors compounds, as indicated in the legends, pelleted, washed in PBS and counted. 10^6 cells were used for measurement of protein concentration with the Pierce BCA protein assay (Thermo Fisher Scientific, #23225) and 10^6 cells were resuspended in 60 μl of 1 N NaOH solution and incubated at 60° C. for 2 h or until the melanin was completely dissolved. After cooling down to room temperature, samples were centrifuged at 500×g for 10 min and the supernatants were loaded onto a 96-well plate. The melanin content was determined by measuring the absorbance at 405 nm on an Envision plate reader, compared with a melanin standard (0 to 50 μg/ml; Sigma Aldrich, #M8631). Melanin content was expressed as micrograms per milligram of protein.

[4] = tested on: tyrosinase; assay: Cycloheximide chase assay of tyrosinase protein stability; type: cell-based, human; conditions: UACC257, 5 mM NAC, 0.1 mM NADPH, 20 μM MitoTEMPO for 48 h, then CHX
Experimental: Cycloheximide chase assay: 72 h after siRNA transfection (sicontrol or siNNT), UACC257 melanoma cells were treated with a protein synthesis inhibitor, cyclohexamide (CHX, Sigma Aldrich #C7698, 50 μg/ml), for the indicated times and then immediately subjected to immunoblotting for tyrosinase protein expression. The expression of tyrosinase was quantified using ImageJ software based on band intensities and normalized to the intensities of the corresponding β-actin bands. The normalized tyrosinase expression was then defined as relative tyrosinase expression by setting the mean values at t=0 in each experimental group to 1.0. […] The siRNA-transfected cells were cultured for an additional 48 h in the presence of these agents and then examined by the CHX chase assay as described above. pLJM-1-EGFP or pLJM1-NNT/FLAG was introduced into UACC257 cells using Lipofectamine 3000, 48 after transfection, the transfection medium was replaced with fresh medium containing DMSO or 10 μM MG132 (Sigma Aldrich #M8699) and pre-incubated for 6 h. Then. CHX was added to assess tyrosinase protein stability as described above.

[5] = tested on: primary human melanocytes; assay: Melanosome maturation by transmission electron microscopy; type: cell-based; conditions: NAC 5 mM or MitoTEMPO 20 μM; for siNNT-induced melanosome maturation: daily for 96 h; for total number of melanosomes per um^2: daily for 96 hours
Experimental: Transmission electron microscopy: Cultured primary human melanocytes were grown in Medium 254 in 6-well transwell plates. Ninety-six h post siRNA or overexpression treatment, the cells were fixed with a modified Kamovsky's fixative (2% paraformaldehyde/2.5% glutaraldehyde in 0.1 M sodium cacodylate buffer, pH 7.4) for at least 2 h on a gentle rotator, followed by rinsing several times with 0.1 M cacodylate buffer. Then, the cells were treated with 1% osmium tetroxide/0.1 M cacodylate buffer for 1 h, rinsed thoroughly in 0.1 M cacodylate buffer, scraped, and the cell suspensions were transferred into 15 ml centrifuge tubes and centrifuged (3,000 rpm) for 15 min at 4° C.). Pelleted material was embedded in 2% agarose, dehydrated through an ethanol gradient (series of solutions from 30% to 100% ethanol), dehydrated briefly in 100% propylene oxide, then allowed to infiltrate overnight on a gentle rotator in a 1:1 mix of propylene oxide and Eponate resin (Ted Pella, Inc., kit with DMP30, #18010′). The following day, specimens were transferred into fresh 100% Eponate resin for 2-3 hours, then embedded in flat molds in 100% fresh Eponate resin, and embeddings were allowed to polymerize for 24-48 h at 60° C. Thin (70 nm) sections were cut using a Leica EM UC7 ultramicrotome, collected onto formvar-coated grids, stained with 2% uranyl acetate and Reynold's lead citrate, and examined in a JEOL JEM 1011 transmission electron microscope at 80 kV. Images were collected using an AMT digital imaging system with proprietary image capture software (Advanced Microscopy Techniques, Danvers, MA). Measurements of distances between melanosomes and mitochondria were quantified in FIJI (ImageJ) (Schindelin et al., 2012) by applying a customized macro to TEM micrographs. Melanosomes (N=˜50) were randomly selected for each condition within the whole image data set. Thirty Euclidean distances from the melanosome surface to the closest mitochondria surface were measured in nm. From these 30 single measurements the mean was calculated to give a final single mean value per melanosome-mitochondria event. A total of ˜50 events (N) were quantified per condition. Data were plotted and statistically analyzed using Prism 8 (Version 8.4.3). […] Cell area (μm^2), number of melanosome-mitochondria contacts, and number of mitochondria were quantified in FIJI (ImageJ) using polygon and multi-point selection tools. Melanosome identification and quantification were performed with images at 40,000× magnification or higher. […] All identifiable melanosomes in 4 cells per condition were quantified and classified, and the proportions of each stage were normalized to cell cytosolic area (determined by ImageJ).

[6] = tested on: NNT; assay: Immunoblot of NNT after redox modulators; type: cell-based, human; conditions: UACC257, NAC 5 mM, MitoTEMPO 20 μM, H2O2 100 μM, daily for 72 hours
Experimental: Immunoblotting: Whole-cell protein lysates were prepared using RIPA lysis buffer (Sigma-Aldrich, #R0278) supplemented with Protease and Phosphatase Inhibitor (ThermoFisher Scientific, #P178445). Protein concentrations were quantified using the Pierce BCA protein assay (ThermoFisher Scientific, #23225). Immunoblotting was performed by standard techniques using 4-15% Criterion TGX Precast Midi Protein gels (Bio-Rad Laboratories, #5671084) and transferring to 0.2 μm nitrocellulose membranes (Bio-Rad Laboratories, #1620112). Membranes were blocked with 5% non-fat milk (Boston BioProducts, #P-1400) in PBS containing 0.1% […] and incubated with one of the following primary antibodies at the indicated dilution (antibody sources are in the Key Resources Table): 1:20 dilution of anti-MITF monoclonal antibody CS, 1:1,000 dilution of anti-Tyrosinase clone T311, 1:1,000 dilution of anti-Mitofusin-2 antibody [6A8], 1:500 dilution of TRP2/DCT antibody, 1:1,000 dilution of anti-NNT antibody [8B4BB10], 1:1,000 dilution of anti-IDH1 ([…]) antibody, 1:1,000 dilution of p53 antibody [PAb 240], 1:1,000 dilution of TYRP1 antibody [EPR21960], 1:1,000 dilution of mouse monoclonal antibody Pmel17 (E-7), or 1:1,000 dilution of LC3B (D11) rabbit monoclonal antibody. Incubation with the appropriate secondary antibody followed, either a 1:5,000 dilution of donkey anti-Rabbit IgG-HRP or a 1:3,000 dilution of Amersham ECL mouse IgG, HRP. To verify equal loading of samples, membranes were re-probed with a 1:20,000 dilution of monoclonal anti-β-actin-peroxidase (Sigma Aldrich, #A3854). Protein bands were visualized using Western Lightning Plus ECL (PerkinElmer, #NEL105001EA) and quantified using ImageJ software (NIH).

[7] = tested on: murine Melan-A cells; assay: Melanin content of Melan-A cells with NNT inhibitors; type: cell-based, mouse; conditions: 2 mM, FIG. 3A
Experimental: Murine Melan-A (Bennett et al., 1987) cells were obtained from the Wellcome Trust Functional Genomics Cell Bank. Melan-A cells were grown in RPMI 1640 supplemented with 10% FBS or FetalPlex (Gemini Bio-Products, #100-602), 100,000 U/L penicillin, 100 mg/L streptomycin sulphate, 100× Glutamax, and 200 nM TPA.
In vitro culture with NNT inhibitors: 2,3-Butanedione 97% (2,3 BD) (Sigma Aldrich, #B85307) (1 μM, 10 μM, 100 μM, 2 mM), N,N-Dicyclohexylcarbodiimide (DCC) (Sigma Aldrich, #D80002) (1 mM, 2 mM, 10 mM), and Palmitoyl coenzyme A lithium salt (Sigma Aldrich, #P9716) (10 μM, 2 mM) were reconstituted with DMSO (American Type Culture Collection, 4-X).
as §1, with “Melanin” for “sIRNA transfection: A single treatment of 10 nmol/L of siRNA was delivered to a 60% confluent culture by transfection with Lipofectamine RNAiMAX (Life Technologies, #13778150) according to the manufacturer's recommendations. After 48-72 h of transfection, total RNA or protein was harvested. Melanin”

[8] = tested on: human skin explants; assay: Pigmentation of human skin explants with topical NNT inhibitors; conditions: human skin explants, data not shown
[9] = tested on: human melanocytes, dermal fibroblasts, and keratinocytes; assay: Cell viability of human skin cells with NNT inhibitors; type: cell-based; conditions: up to 10 μM, FIG. 10B
Experimental: Primary human keratinocytes were cultured in EpiLife® medium supplemented with human keratinocyte growth supplement (HKGS, ThermoFisher Scientific). Primary human fibroblasts were cultured in medium 106 supplemented with low serum growth supplement (LSGS, ThermoFisher Scientific). 10^6 and […] cells were plated per well of 6-well and 96-well plates, respectively. Drugs indicated in the figure legends were dissolved in DMSO and added 1:1000 to the culture media for 24 h at the concentrations indicated.
Cell viability assay: Human melanoma cell lines and isolated primary cultured human melanocytes were propagated and tested in early passage (Passages 7 to 9). The effects of NNT inhibitors (2,3BD, DCC, and Palmitoyl coenzyme A lithium salt) on cell viability were evaluated by the CellTiter-Glo Luminescent Cell Viability Assay (Promega, #G7570) and measurement of luminescence was performed on an EnVision 2104 Multilabel Reader (PerkinElmer). Human melanoma cell lines and primary melanocytes were plated on 96-well white plates (10,000 cells/well) and were treated with the NNT inhibitors at the indicated concentrations for 24 h.

SMILES | depigmentation of human skin [1] | irritation [1] | ability to depigment skin [2] | siNNT-mediated increase in pigmentation [3] | siNNT-increased tyrosinase protein stability [4] | siNNT-induced melanosome maturation [5] | total number of melanosomes per um^2 [5] | NNT protein levels [6] | melanin content [7] | effect on pigmentation [8] | penetration of the epidermis [8] | toxicity (viability) [9]
CCCCC(CC)CN1CN(CC(CC)CCCC)CC(C)(N)C1 (centres unmarked) [Hexetidine, 1,3-bis(2-ethylhexyl)-5-methyl-1,3-diazinan-5-amine] | successful depigmentation | without significant irritation | depigmenting effects |  |  |  |  |  |  |  |  | 
CC1(C)CC(NC(=O)C[P+](c2ccccc2)(c2ccccc2)c2ccccc2)CC(C)(C)N1[O] [MitoTEMPO] |  |  |  | inhibited the siNNT-mediated increase in pigmentation | prevented | prevented the siNNT-induced phenotype | not altered | did not impact NNT protein levels |  |  |  | 
CC(=O)N[C@@H](CS)C(=O)O [NAC, N-acetylcysteine] |  |  |  | inhibited the siNNT-mediated increase in pigmentation | prevented | prevented the siNNT-induced phenotype | not altered | did not impact NNT protein levels |  |  |  | 
CCCCCCCCCCCCCCCC(=O)SCCNC(=O)CCNC(=O)[C@H](O)C(C)(C)COP(=O)(O)OP(=O)(O)OC[C@H]1O[C@@H](n2cnc3c(N)ncnc32)[C@H](O)[C@@H]1OP(=O)(O)O.[Li] [Palmitoyl-CoA, Palmitoyl coenzyme A lithium salt] |  |  |  |  |  |  |  |  | not | no effect on pigmentation | did not penetrate the epidermis | no significant toxicity
